The results in this text go back to US12209075B2, “Pyridine-sulfonamide derivatives as sodium channel inhibitors” (GENENTECH, INC., priority 2018, dated 2025).

Counter-ions that a name gives are not always drawn.

Broadly, the IC50 is the concentration at which inhibition is half-maximal. The low end stands for inhibition by little substance, the high end for a need for much substance.

The experiment deals with hNav1.7 (Homo sapiens (Human), UniProt Q15858). As to the kind of experiment: Tritiated compound binding to membranes from cells expressing hNav1.7 and the β1 subunit (Nav1.7 LBA EVO). As to conditions: competitive binding vs [3H]compound, membranes with hNav1.7 and β1 subunit. As for the experimental part: Example 64a. Tritiated Compound Binding to Membranes Isolated from Cells that Heterologously Express hNav1.7 and the β1 Subunit
hNav1.7, sequence (Q15858 whole entry, looked up): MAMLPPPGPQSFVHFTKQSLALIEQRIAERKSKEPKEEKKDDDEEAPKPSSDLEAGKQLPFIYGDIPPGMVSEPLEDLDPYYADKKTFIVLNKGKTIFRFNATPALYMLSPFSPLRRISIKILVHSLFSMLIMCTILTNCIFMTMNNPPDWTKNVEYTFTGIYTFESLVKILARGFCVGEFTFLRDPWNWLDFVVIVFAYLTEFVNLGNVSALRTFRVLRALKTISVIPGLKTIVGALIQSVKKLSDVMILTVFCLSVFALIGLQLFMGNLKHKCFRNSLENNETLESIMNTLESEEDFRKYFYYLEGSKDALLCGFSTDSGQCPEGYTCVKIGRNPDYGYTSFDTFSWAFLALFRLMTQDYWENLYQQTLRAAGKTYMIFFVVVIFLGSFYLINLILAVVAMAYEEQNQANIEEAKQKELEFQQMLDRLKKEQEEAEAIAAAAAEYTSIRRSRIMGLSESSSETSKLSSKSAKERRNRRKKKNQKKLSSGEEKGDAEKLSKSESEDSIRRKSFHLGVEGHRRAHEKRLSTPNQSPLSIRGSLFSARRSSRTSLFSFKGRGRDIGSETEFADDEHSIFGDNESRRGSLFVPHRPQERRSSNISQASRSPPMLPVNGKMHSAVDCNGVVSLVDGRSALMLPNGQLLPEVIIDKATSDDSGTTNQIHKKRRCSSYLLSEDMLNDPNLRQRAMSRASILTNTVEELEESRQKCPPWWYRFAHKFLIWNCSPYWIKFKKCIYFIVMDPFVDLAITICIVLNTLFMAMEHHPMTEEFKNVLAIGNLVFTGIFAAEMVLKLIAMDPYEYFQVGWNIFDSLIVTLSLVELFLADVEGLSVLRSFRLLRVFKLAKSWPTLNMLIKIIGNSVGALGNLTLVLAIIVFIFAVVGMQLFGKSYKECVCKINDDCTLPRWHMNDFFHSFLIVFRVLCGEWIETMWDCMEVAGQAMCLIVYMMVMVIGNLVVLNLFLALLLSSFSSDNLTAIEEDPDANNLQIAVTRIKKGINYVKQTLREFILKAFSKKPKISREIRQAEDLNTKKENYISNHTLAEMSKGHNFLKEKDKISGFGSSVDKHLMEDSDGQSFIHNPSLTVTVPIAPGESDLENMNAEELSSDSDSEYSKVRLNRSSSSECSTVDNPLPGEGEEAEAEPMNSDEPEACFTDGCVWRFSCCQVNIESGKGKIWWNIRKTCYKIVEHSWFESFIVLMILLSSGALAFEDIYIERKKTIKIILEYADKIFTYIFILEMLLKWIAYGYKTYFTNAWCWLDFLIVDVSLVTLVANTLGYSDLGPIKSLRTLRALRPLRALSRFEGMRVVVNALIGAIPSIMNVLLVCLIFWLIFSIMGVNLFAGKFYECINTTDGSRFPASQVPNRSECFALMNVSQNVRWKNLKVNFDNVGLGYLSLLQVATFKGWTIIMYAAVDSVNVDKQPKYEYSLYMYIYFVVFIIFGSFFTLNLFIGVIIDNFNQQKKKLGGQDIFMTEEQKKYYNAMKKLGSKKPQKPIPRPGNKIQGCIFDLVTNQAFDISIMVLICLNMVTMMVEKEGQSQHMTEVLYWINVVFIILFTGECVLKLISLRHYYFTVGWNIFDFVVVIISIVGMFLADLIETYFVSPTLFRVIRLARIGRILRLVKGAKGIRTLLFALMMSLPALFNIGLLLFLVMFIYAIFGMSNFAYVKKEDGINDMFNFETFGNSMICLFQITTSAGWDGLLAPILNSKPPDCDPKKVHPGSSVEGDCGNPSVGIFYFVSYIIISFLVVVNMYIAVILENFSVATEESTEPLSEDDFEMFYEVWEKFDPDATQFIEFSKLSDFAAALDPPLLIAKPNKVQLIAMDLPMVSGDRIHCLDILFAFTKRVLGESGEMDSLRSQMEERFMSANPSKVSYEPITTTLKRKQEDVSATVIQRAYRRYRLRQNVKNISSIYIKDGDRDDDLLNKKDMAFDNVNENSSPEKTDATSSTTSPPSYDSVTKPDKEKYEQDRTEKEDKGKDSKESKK
hNav1.7, sequence (Q07699 whole entry partner, looked up): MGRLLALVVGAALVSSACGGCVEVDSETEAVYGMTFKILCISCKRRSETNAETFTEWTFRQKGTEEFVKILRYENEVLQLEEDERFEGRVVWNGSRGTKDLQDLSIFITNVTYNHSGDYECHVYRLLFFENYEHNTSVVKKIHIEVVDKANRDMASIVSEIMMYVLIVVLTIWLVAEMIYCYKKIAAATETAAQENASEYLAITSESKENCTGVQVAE
Preparation of membranes containing recombinantly expressed sodium channels: Frozen recombinant cell pellets are thawed on ice and diluted to 4 times the cell pellet weight with ice cold 50 mM Tris HCl, pH 7.4 buffer. The cell suspensions are homogenized on ice using a motorized glass dounce homogeniser. Homogenates are further diluted 8.4 times with ice cold 50 mM Tris HCl, pH 7.4 buffer and then centrifuged at 200×g at 4° C. for 15 minutes. The supernatants are collected and centrifuged at 10000×g at 4° C. for 50 min. The pellets are then re-suspended in 100 mM NaCl, 20 mM Tris HCl, pH 7.4 buffer containing 1% v/v protease inhibitors (Calbiochem) and re-homogenized on ice. The homogenized membranes are then processed through a syringe equipped with a 26 gauge needle. Protein concentrations arer determined by Bradford Assay and the membranes are stored at −80° C.
Radioligand Binding Studies: Saturation experiments. A competitive NaV1.7 inhibitor having a methyl group is tritiated. Three tritiums are incorporated in place of methyl hydrogens to generate [^3H]compound. Binding of this radioligand is performed in 5 mL borosilicate glass test tubes at room temperature. Binding is initiated by adding membranes to increasing concentrations of [^3H]compound in 100 mM NaCl, 20 mM Tris HCl, pH 7.4 buffer containing 0.01% w/v bovine serum albumin (BSA) for 18 h. Non-specific binding is determined in the presence of 1 μM unlabeled compound. After 18 h, the reactants are filtered through GF/C glass fiber filters presoaked in 0.5% w/v polyethylene imine. Filters are washed with 15 mL ice cold 100 mM NaCl, 20 mM Tris HCl, pH7.4 buffer containing 0.25% BSA to separate bound from free ligand. [^3H]compound bound to filters is quantified by liquid scintillation counting.
Competitive binding experiments: Binding reactions are performed in 96-well polypropylene plates at room temperature for 18 h. In 360 μL, membranes are incubated with 100 pM [^3H]compound and increasing concentrations of Test Compound. Non-specific binding is defined in the presence of 1 μM unlabeled compound. Reactions are transferred and filtered through 96-well glass fiber/C filter plates presoaked with 0.5% polyethylene imine. The filtered reactions are washed 5 times with 200 μL ice cold buffer containing 0.25% BSA. Bound radioactivity is determined by liquid scintillation counting.
Data Analysis: For saturation experiments, non-specific binding is subtracted from total binding to provide specific binding and these values are recalculated in terms of pmol ligand bound per mg protein. Saturation curves are constructed and dissociation constants are calculated using the single site ligand binding model: Beq=(Bmax*X)/(X+Kd), where Beq is the amount of ligand bound at equilibrium, Bmax is the maximum receptor density, Kd is the dissociation constant for the ligand, and X is the free ligand concentration. For competition studies percent inhibition is determined and IC50 values are calculated using a 4 parameter logistic model (% inhibition=(A+((B−A)/(1+((x/C)^D)))) using XLfit, where A and B are the maximal and minimum inhibition respectively, C is the IC50 concentration and D is the (Hill) slope.
Example 64b. Tritiated Compound Binding to Membranes Isolated from Cells that Heterologous Express hNav1.7 and the β1 Subunit
Preparation of membranes containing recombinantly expressed sodium channels: Following the procedure described in 31a, and making modifications as required to: centrifuge supernatants at 100000×g instead of 10000×g; re-suspend pellets in a buffer containing 0.01% BSA in addition to 100 mM NaCl, 20 mM Tris HCl, pH 7.4 buffer, and 1% v/v […]; and storing membranes at −80° C. in single use aliquots instead of pooled. […]
Consider `CN(C)[C@H]1C[C@@H](c2cccc(C(F)(F)F)c2)CC[C@@H]1Oc1ccc(S(=O)(=O)Nc2ccncn2)cn1` [Example 1, 6-(((1S,2S,4S)-2-(Dimethylamino)-4-(3-(trifluoromethyl)phenyl)cyclohexyl)oxy)-N-(pyrimidin-4-yl)pyridine-3-sulfonamide], for which the IC50 was found to be 28.2 nM. With `CN(C)[C@H]1C[C@@H](c2cccc(C(F)(F)F)c2)CC[C@@H]1Oc1ncc(S(=O)(=O)Nc2ccncn2)cc1Cl` [Example 3, 5-Chloro-6-(((1S,2S,4S)-2-(dimethylamino)-4-(3-(trifluoromethyl)phenyl)cyclohexyl)oxy)-N-(pyrimidin-4-yl)pyridine-3-sulfonamide] the figure was 40 nM. With `CN(C)[C@H]1C[C@@H](c2cccc(C(F)(F)F)c2)CC[C@@H]1Nc1ncc(S(=O)(=O)Nc2ccncn2)cc1Cl` [Example 4, 5-Chloro-6-(((1S,2S,4S)-2-(dimethylamino)-4-(3-(trifluoromethyl)phenyl)cyclohexyl)amino)-N-(pyrimidin-4-yl)pyridine-3-sulfonamide] the figure was 8.3 nM; with `CN(C)[C@H]1C[C@@H](c2cccc(C(F)(F)F)c2)CC[C@@H]1Nc1ccc(S(=O)(=O)Nc2ccncn2)nc1` [Example 5, 5-(((1S,2S,4S)-2-(Dimethylamino)-4-(3-(trifluoromethyl)phenyl)cyclohexyl)amino)-N-(pyrimidin-4-yl)pyridine-2-sulfonamide], 66.4 nM. The compound `CN(C)[C@H]1C[C@@H](c2cccc(C(F)(F)F)c2)CC[C@@H]1Oc1ncc(S(=O)(=O)Nc2ccncn2)cc1C#N` [Example 6, 5-Cyano-6-(((1S,2S,4S)-2-(dimethylamino)-4-(3-(trifluoromethyl)phenyl)cyclohexyl)oxy)-N-(pyrimidin-4-yl)pyridine-3-sulfonamide formate] displayed a half-inhibitory concentration (IC50) of 44.8 nM. Under `CN(C)[C@H]1C[C@@H](c2cccc(C(F)(F)F)c2)CC[C@@H]1Oc1ncc(S(=O)(=O)Nc2ccncn2)cc1C1CC1` [Example 7, 5-Cyclopropyl-6-(((1S,2S,4S)-2-(dimethylamino)-4-(3-(trifluoromethyl)phenyl)cyclohexyl)oxy)-N-(pyrimidin-4-yl)pyridine-3-sulfonamide formate] stands 4.88 nM.

Take `O=S(=O)(Nc1ccncn1)c1ccc(O[C@H]2CC[C@H](c3cccc(OC(F)(F)F)c3)C[C@@H]2N2CCCC2)nc1` [Example 10, N-(pyrimidin-4-yl)-6-(((1S,2S,4S)-2-(pyrrolidin-1-yl)-4-(3-(trifluoromethoxy)phenyl)cyclohexyl)oxy)-pyridine-3-sulfonamide]: the IC50 stood at 67.4 nM. `CN(C)[C@H]1C[C@@H](c2ccc(Cl)c(C(F)(F)F)c2)CC[C@@H]1Nc1ccc(S(=O)(=O)Nc2ccncn2)cn1` [Example 11, 6-(((1S,2S,4S)-4-(4-chloro-3-(trifluoromethyl)phenyl)-2-(dimethylamino)cyclohexyl)amino)-N-(pyrimidin-4-yl)pyridine-3-sulfonamide formate]: the IC50 was found to be 16.6 nM. Under `CN(C)[C@H]1C[C@@H](c2ccc(Cl)c(C(F)(F)F)c2)CC[C@@H]1Oc1ccc(S(=O)(=O)Nc2ccncn2)cn1` [Example 12, 6-(((1S,2S,4S)-4-(4-chloro-3-(trifluoromethyl)phenyl)-2-(dimethylamino)cyclohexyl)oxy)-N-(pyrimidin-4-yl)pyridine-3-sulfonamide formate] stands 1.27 nM; under `CN(C)[C@H]1C[C@@H](c2cccc(OC(F)(F)F)c2)CC[C@@H]1Oc1ncc(S(=O)(=O)Nc2ccncn2)cc1Cl` [Example 13, 5-chloro-6-(((1S,2S,4S)-2-(dimethylamino)-4-(3-(trifluoromethoxy)phenyl)cyclohexyl)oxy)-N-(pyrimidin-4-yl)pyridine-3-sulfonamide], 13.8 nM. In turn, `CN(C)[C@H]1C[C@@H](c2cccc(C(F)(F)F)c2)CC[C@@H]1Oc1ncc(S(=O)(=O)Nc2ccncn2)cc1C(F)(F)F` [Example 14, 6-(((1S,2S,4S)-2-(dimethylamino)-4-(3-(trifluoromethyl)phenyl)cyclohexyl)oxy)-N-(pyrimidin-4-yl)-5-(trifluoromethyl)pyridine-3-sulfonamide] came in with an IC50 of 43.7 nM. `Cc1cc(S(=O)(=O)Nc2ccncn2)cnc1O[C@H]1CC[C@H](c2cccc(C(F)(F)F)c2)C[C@@H]1N(C)C` [Example 15, 6-(((1S,2S,4S)-2-(Dimethylamino)-4-(3-(trifluoromethyl)phenyl)cyclohexyl)oxy)-5-methyl-N-(pyrimidin-4-yl)pyridine-3-sulfonamide] came in with an IC50 of 40.8 nM.

Turning to `O=S(=O)(Nc1ccncn1)c1ccc(N[C@H]2CC[C@H](c3cccc(C(F)(F)F)c3)C[C@@H]2N2CCCC2)nc1` [Example 16, N-(pyrimidin-4-yl)-6-(((1S,2S,4S)-2-(pyrrolidin-1-yl)-4-(3-(trifluoromethyl)phenyl)cyclohexyl)-amino)pyridine-3-sulfonamide formate], the IC50 was 25.1 nM. As for `O=S(=O)(Nc1ccncn1)c1ccc(O[C@H]2CC[C@H](c3cccc(C(F)(F)F)c3)C[C@@H]2N2CCCC2)nc1` [Example 17, N-(pyrimidin-4-yl)-6-(((1S,2S,4S)-2-(pyrrolidin-1-yl)-4-(3-(trifluoromethyl)phenyl)cyclohexyl)oxy)-pyridine-3-sulfonamide formate], the 50% inhibitory concentration (IC50) was found to be 1.18 nM. Under `O=S(=O)(Nc1ccncn1)c1cnc(O[C@H]2CC[C@H](c3cccc(C(F)(F)F)c3)C[C@@H]2N2CCCC2)c(Cl)c1` [Example 18, 5-chloro-N-(pyrimidin-4-yl)-6-(((1S,2S,4S)-2-(pyrrolidin-1-yl)-4-(3-(trifluoromethyl)phenyl)-cyclohexyl)oxy)pyridine-3-sulfonamide] stands 0.95 nM. Under `O=S(=O)(Nc1ccncn1)c1cnc(O[C@H]2CC[C@H](c3cccc(C(F)(F)F)c3)C[C@@H]2N2CCCCC2)c(Cl)c1` [Example 19, 5-chloro-6-(((1S,2S,4S)-2-(piperidin-1-yl)-4-(3-(trifluoromethyl)phenyl)cyclohexyl)oxy)-N-(pyrimidin-4-yl)pyridine-3-sulfonamide] stands 0.493 nM; under `CN(C)[C@H]1C[C@@H](c2cccc(C(F)(F)F)c2)CC[C@@H]1Oc1ncc(S(=O)(=O)Nc2ccncn2)cc1Br` [Example 20, 5-bromo-6-(((1S,2S,4S)-2-(dimethylamino)-4-(3-(trifluoromethyl)phenyl)cyclohexyl)oxy)-N-(pyrimidin-4-yl)pyridine-3-sulfonamide formate], 28.2 nM. Under `CN(C)[C@H]1C[C@@H](c2cccc(C(F)(F)F)c2)CC[C@@H]1Oc1ncc(S(=O)(=O)Nc2ccncn2)cc1F` [Example 21, 6-(((1S,2S,4S)-2-(Dimethylamino)-4-(3-(trifluoromethyl)phenyl)cyclohexyl)oxy)-5-fluoro-N-(pyrimidin-4-yl)pyridine-3-sulfonamide] stands 9.17 nM; under `CN(C)[C@H]1C[C@@H](c2cccc(C(F)(F)F)c2)CC[C@@H]1Oc1ccc(S(=O)(=O)Nc2ccncn2)c(Cl)n1` [Example 22, 2-Chloro-6-(((1S,2S,4S)-2-(dimethylamino)-4-(3-(trifluoromethyl)phenyl)cyclohexyl)oxy)-N-(pyrimidin-4-yl)pyridine-3-sulfonamide], 40 nM.
